Where a SMILES comes first, the peptide text is derived from it. Bridges are numbered along the chain shown (N, C = ends). [ ]: non-standard residue; d: D form. The star is where a group is joined. Ileψ(thiazoline)Cys = CC[C@H](C)[C@H](N)C1=N[C@H](C(=O)*)CS1; dOrn = NCCC[C@@H](N)C(=O)O
Test system: LLO strain
Assay: antibiogram of the strain LLO with antibiotic discs
Assay type: cell-based, Lactococcus lactis
Conditions: antibiotic discs on Mueller Hinton medium, 5% horse blood, pH 7.3; 48 hours at ambient temperature; streptomycin 10 U.I., kanamycin 30 U.I., gentamicin 10 U.I.
Description: An antibiogram has been produced with the strain LLO to study its resistance to several antibiotics.
The test is carried out on Mueller Hinton medium containing 1.7% agar and 5% horse blood, the pH is 7.3. The thickness of the agar in the Petri dishes is constant, it is 4 mm. It is a standardized medium according to the O.M.S. standards.
The LLO strain is cultivated in an MRS broth, pH 6.5, for […] at 15° C. until there is obtained the stationary phase. The culture is diluted to 1/10th in a Mueller Hinton broth. The approximate concentration of the suspension is 10^6 bacteria/ml.
The agar media are completely covered with 2 ml of the suspension. The excess liquid is withdrawn and the dishes are dried 10 minutes at ambient temperature. The antibiotic discs are deposited with the help of tongs (4 maximum). The dishes are incubated at ambient temperature for 48 hours.

Compound | Result (antibiogram)
CC1(C)S[C@@H]2[C@H](NC(=O)[C@H](N)c3ccccc3)C(=O)N2[C@H]1C(=O)O [Ampicillin] | Noticeable
CC[C@H](C)[C@H](N)C1=N[C@H](C(=O)N[C@@H](CC(C)C)C(=O)N[C@H](CCC(=O)O)C(=O)N[C@H](C(=O)N[C@H]2CCCCNC(=O)[C@H](CC(N)=O)NC(=O)[C@@H](CC(=O)O)NC(=O)[C@H](Cc3cnc[nH]3)NC(=O)[C@@H](Cc3ccccc3)NC(=O)[C@H]([C@@H](C)CC)NC(=O)[C@@H](CCCN)NC2=O)[C@@H](C)CC)CS1 [Bacitracin] ({Ileψ(thiazoline)Cys}-L[dE]IK[dOrn]I[dF]H[dD]N; lactam 4-C) | Noticeable
CC1=C(C(=O)O)N2C(=O)[C@@H](NC(=O)[C@H](N)c3ccccc3)[C@H]2SC1 [Cefalexin] | Noticeable
O=C(N[C@H](CO)[C@H](O)c1ccc([N+](=O)[O-])cc1)C(Cl)Cl [Chloramphenicol] | Noticeable
C[C@H]1c2cccc(O)c2C(O)=C2C(=O)[C@]3(O)C(O)=C(C(N)=O)C(=O)[C@@H](N(C)C)[C@@H]3[C@@H](O)[C@@H]21 [Doxycyclin] | Noticeable
CCN1CCN(c2cc3c(cc2F)c(=O)c(C(=O)O)cn3C2CC2)CC1 [Enrofloxacin] | Noticeable
CC[C@H]1OC(=O)[C@H](C)[C@@H](O[C@H]2C[C@@](C)(OC)[C@@H](O)[C@H](C)O2)[C@H](C)[C@@H](O[C@@H]2O[C@H](C)C[C@H](N(C)C)[C@H]2O)[C@](C)(O)C[C@@H](C)C(=O)[C@H](C)[C@@H](O)[C@]1(C)O [Erythromycin] | Noticeable
CC1CCc2cc(F)cc3c(=O)c(C(=O)O)cn1c23 (stereo not drawn) [Flumequin] | Resistant
c1ccoc1 [Furan] | Resistant
CCC[C@@H]1C[C@@H](C(=O)N[C@@H]([C@H]2O[C@H](SC)[C@H](O)[C@@H](O)[C@H]2O)[C@@H](C)O)N(C)C1 [Lincomycin] | Noticeable
CC1(C)S[C@@H]2[C@H](NC(=O)Cc3ccccc3)C(=O)N2[C@H]1C(=O)O [Penicillin G] | Noticeable
[H]/N=C(/N)N[C@H]1[C@H](O)[C@@H](O)[C@H](O[C@@H]2O[C@@H](C)[C@](O)(C=O)[C@H]2O[C@@H]2O[C@@H](CO)[C@H](O)[C@@H](O)[C@@H]2NC)[C@@H](N/C(N)=N\[H])[C@@H]1O [Streptomycin] | Noticeable
CN(C)[C@@H]1C(=O)C(C(N)=O)=C(O)[C@@]2(O)C(=O)C3=C(O)c4c(O)cccc4[C@@](C)(O)[C@H]3C[C@@H]12 [Tetracyclin] | Noticeable
Gentamicin | Noticeable
Spiramycin | Noticeable

Source: patent US20040249129A1, “Novel lactic bacteria of the genus lactococcus lactis and use thereof for preserving food products” (priority 2001, published 2004)
